Reference: patent US8530427B2, “Methods for modulating resistance to apoptosis using KLK6” (Mayo Foundation for Medical Education and Research, priority 2010, dated 2013)

How the values were obtained:
[1] = system: Oli Neu oligodendrocyte cell line; experiment: Oli Neu oligodendrocyte cell death, PI flow cytometry; format: cell-based, murine; details: 0.5 μM; 18 hour exposure
Excerpt: KLK6 polypeptides promoted the survival of murine oligodendrocytes in a dose dependent fashion. […] Cell death was detected by PI labeling and quantitatively analyzed by flow cytometry.

[2] = system: U251 human glioblastoma cell line; experiment: U251 glioblastoma cell death / apoptosis by flow cytometry; format: cell-based; details: 1 μM
Description: The percent of cells labeled with propidium iodide (PI) after 24 hour exposure to staurosporine (1 μM) shown in histogram (FIG. 15A) was quantified by flow cytometry (FIG. 15B) and is taken as a measure of cell death. All samples were treated and analyzed in triplicate.
Levels of live (Annexin V− and Propidium iodide− (PI−)), early apoptotic (Annexin V+ and PI−), or dead (Annexin V+ and PI+) cells were determined by flow cytometry after a 24 hour period of exposure to 1 μM staurosporine (FIG. 16B) or staurosporine in the presence of 10 μg/mL KLK6 (FIG. 16C).
Dead cells were detected by labeling with 7-AAD. […] All expression data were normalized to the constitutively expressed gene GAPDH (*P<0.05, Students t-test).
KLK6 polypeptides promoted the survival of human glioma cells. […] Cell death was measured by flow cytometric detection of propidium iodide labeling.

[3] = system: murine splenocytes; experiment: Murine splenocyte/lymphocyte cell death, PI labeling by flow cytometry; format: cell-based; details: resting conditions; 1 or 10 μg/mL at plating; 24 and 72 hours
Excerpt: The effect of KLK6 polypeptides on immune cell survival was examined using whole splenocyte populations derived from C57BL6/J or PAR1 deficient mice or using the Jurkat T-leukemic cell line (clone E6-1, TIB-152 American Type Culture Collection). Eight to 12 week old C57 mice were obtained from Jackson Laboratories. Mice deficient in PAR1^-/- (B6.129S4-[…]^tm1Ajc/J) were also obtained from Jackson and backcrossed to C57BL6/J for 10 generations such that C57 mice served as wild type controls in each experiment. Spleens were homogenized in RPMI-1640, red blood cells lysed with ammonium chloride buffer, and splenocytes cultured in tissue culture treated 96 well plates at a density of 7.5×10^5 cells/mL. All experiments were performed in serum free X-Vivo media (Lonza, Mapleton, Ill.) containing 2 mM Glutamax, 1 mM sodium pyruvate, 50 U/mL penicillin-streptomycin, 10 mM HEPES, 50 μM 2-β-mercaptoethanol, and 10 μM non-essential amino acids (Invitrogen). Jurkat T cells were maintained in log-phase growth in the same defined media. The cells were maintained at 37° C. in 95% air and 5% CO2. […] Cells were analyzed by flow cytometry using a FACSCalibur flow cytometer (BD Biosciences, Mountain View, Calif.). […] FlowJo software (Ashland, Oreg.) was used to quantify different cell populations in flow cytometry experiments. […]

[4] = system: murine splenocytes; experiment: Splenocyte proliferation, CFSE labeling by flow cytometry; format: cell-based

Compound	cell death induced by staurosporine [1]	cell death induced by staurosporine [2]	cell death / cell survival [3]	percent of divided cells ([4]; 10 μg/mL, 24 hours post-stimulation)	proliferation ([4]; lower concentrations, or 72 hours post-exposure)
CN[C@@H]1C[C@H]2O[C@@](C)([C@@H]1OC)n1c3ccccc3c3c4c(c5c6ccccc6n2c5c31)C(=O)NC4 [staurosporine]	shown to promote death of the Oli Neu oligodendrocyte cell line	induced a considerable increase in cell death	–	–	–
KLK1 polypeptides: recombinant kallikrein family member KLK1, produced in an identical fashion to KLK6	–	–	did not significantly impact cell survival	significant increase in the percent of divided cells	Significant differences in proliferation were not seen
